Experiments:
5-HT2C = biological target: T1, 5-HT2C (Homo sapiens, UniProt P28335); assay: Radioligand binding assay, 5-HT2C
T1 construct: expressed in transfected cells
T1 sequence (P28335 33-458): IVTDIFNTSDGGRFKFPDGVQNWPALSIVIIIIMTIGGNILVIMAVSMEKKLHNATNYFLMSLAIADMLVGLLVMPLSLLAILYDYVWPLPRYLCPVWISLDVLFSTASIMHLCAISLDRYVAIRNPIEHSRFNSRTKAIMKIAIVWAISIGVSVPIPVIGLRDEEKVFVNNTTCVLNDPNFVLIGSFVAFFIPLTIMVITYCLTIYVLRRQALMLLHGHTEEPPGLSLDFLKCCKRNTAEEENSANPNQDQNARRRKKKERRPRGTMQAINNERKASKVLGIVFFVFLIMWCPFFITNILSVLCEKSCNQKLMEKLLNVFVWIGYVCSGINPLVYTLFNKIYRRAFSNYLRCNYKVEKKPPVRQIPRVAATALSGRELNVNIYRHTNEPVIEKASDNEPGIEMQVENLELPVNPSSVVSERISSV
Procedure: (§1) [^3H] […] The reactions are incubated at room temperature for 3 hr. and then counted in a Trilux Microbeta™ scintillation counter to detect receptor-bound radioligand. Binding data are analyzed by computer-assisted 4 parameter fit analysis (ID Business Solutions Ltd, Guildford, Surrey, UK). […]
(§2) Affinity for other serotonin receptor subtypes as well as for alpha 1 & 2 adrenergic receptors can readily be determined by modification of the above described radioligand receptor binding assay using membranes derived from cells stably expressing the desired receptor subtype including the 5-HT1A, 5-HT1B, and 5-HT1D subtypes, as well as the 5-HT2A, 5-HT2B, 5-HT2C, 5-HT4, 5-HT7, and 5-HT6 receptor subtypes. […]

5-HT5 = biological target: T2, 5-HT5 (Homo sapiens, UniProt P47898); assay: Radioligand binding assay, 5-HT5
T2 construct: expressed in transfected cells
T2 sequence (P47898 whole entry): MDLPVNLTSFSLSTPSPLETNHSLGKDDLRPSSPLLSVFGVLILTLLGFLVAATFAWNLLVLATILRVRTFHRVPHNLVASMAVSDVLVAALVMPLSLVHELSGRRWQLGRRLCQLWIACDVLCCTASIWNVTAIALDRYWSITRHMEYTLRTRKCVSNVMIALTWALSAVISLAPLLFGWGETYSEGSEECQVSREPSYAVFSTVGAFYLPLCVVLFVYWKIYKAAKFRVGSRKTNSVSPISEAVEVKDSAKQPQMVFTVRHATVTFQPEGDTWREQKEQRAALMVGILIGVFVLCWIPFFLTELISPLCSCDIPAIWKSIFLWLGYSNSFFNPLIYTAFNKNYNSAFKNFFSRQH
Procedure: as §1, §2

5-HT6 = biological target: T3, 5-HT6 (Homo sapiens, UniProt P50406); assay: Radioligand binding assay, 5-HT6
T3 construct: expressed in transfected cells
T3 sequence (P50406 whole entry, species assumed): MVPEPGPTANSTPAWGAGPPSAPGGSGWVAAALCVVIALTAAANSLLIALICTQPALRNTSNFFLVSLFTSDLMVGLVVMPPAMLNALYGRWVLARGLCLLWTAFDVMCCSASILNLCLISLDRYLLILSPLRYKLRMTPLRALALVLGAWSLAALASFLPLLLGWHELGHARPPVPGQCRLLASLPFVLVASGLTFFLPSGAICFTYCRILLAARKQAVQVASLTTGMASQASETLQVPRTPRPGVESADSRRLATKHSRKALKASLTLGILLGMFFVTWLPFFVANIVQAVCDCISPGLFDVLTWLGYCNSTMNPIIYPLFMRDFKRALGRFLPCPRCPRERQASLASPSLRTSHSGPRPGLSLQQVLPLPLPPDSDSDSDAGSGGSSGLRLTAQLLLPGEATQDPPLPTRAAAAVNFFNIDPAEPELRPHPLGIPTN
Procedure: as §1, §2

CCn1ncc(CN2CCN(c3cccnc3N3CCC(O)CC3)CC2)c1C.Cl [Example 1, 3′-[4-(1-Ethyl-5-methyl-1H-pyrazol-4-ylmethyl)-piperazin-1-yl]-3,4,5,6-tetrahydro-2H-[1,2]bipyridinyl-4-ol hydrochloride]
Ki (5-HT2C): > 8.36 µM
Ki (5-HT5): 4.55 µM
Ki (5-HT6): > 5.83 µM
